Test results as given in US8574563B2 (Bristol-Myers Squibb Company, priority 2006, dated 2013).
pEC50: −log10 of the molar value.

test system: HCV 1b-377-neo replicon cells; assay: HCV replicon assay, HCV 1b-377-neo replicon cells (1b FRET); assay type: cell-based, Hepatitis C virus genotype 1b; conditions: HCV 1b replicon, FRET; read-out: 1b Fret (EC50 μM)
Outline: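 Compounds were tested in genotype 1b subgenomic replicon cells carrying a neomycin marker, alongside a matched replicon line with an NS5A Y2065H substitution that confers resistance to a reference NS5A inhibitor.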

Q: `CC(C)[C@H](NS(=O)(=O)C(C)C)C(=O)N1CCC[C@H]1c1ncc(-c2ccc(-c3ccc(-c4cnc([C@@H]5CCCN5C(=O)[C@@H](NS(=O)(=O)N(C)C)C(C)C)[nH]4)cc3)cc2)[nH]1` [Example F65, N—((S)-1-((S)-2-(5-(4′-(2-((S)-1-((S)-2-(N,N-dimethylsulfamoylamino)-3-methylbutanoyl)pyrrolidin-2-yl)-1H-imidazol-5-yl)biphenyl-4-yl)-1H-imidazol-2-yl)pyrrolidin-1-yl)-3-methyl-1-oxobutan-2-yl)propane-2-sulfonamide] was tested. Which EC50 did it give?
A: Its EC50 is 210 nM.

same assay, conditions: HCV 1b-377-neo replicon cells; HCV 1b genotype; read-out: EC50 range against HCV 1b (Table 2, Range)

Q: With `CN1CCN(C(C(=O)N2CCC[C@H]2c2ncc(-c3ccc(-c4ccc(-c5c[nH]c([C@@H]6CCCN6C(=O)[C@H]6CCCO6)n5)cc4)cc3)[nH]2)c2ccccc2)CC1` (stereo partly drawn) [Example 103-4, 1-methyl-4-(2-oxo-1-phenyl-2-((2S)-2-(5-(4′-(2-((2S)-1-((2R)-tetrahydro-2-furanylcarbonyl)-2-pyrrolidinyl)-1H-imidazol-4-yl)-4-biphenylyl)-1H-imidazol-2-yl)-1-pyrrolidinyl)ethyl)piperazine] as the molecule, how does the pEC50 read?
A: Its pEC50 is 9.00 to 12.00.

Q: With `CC(C)[C@H](NS(=O)(=O)C(C)C)C(=O)N1CCC[C@H]1c1ncc(-c2ccc(-c3ccc(-c4cnc([C@@H]5CCCN5C(=O)[C@@H](NS(=O)(=O)N(C)C)C(C)C)[nH]4)cc3)cc2)[nH]1` [Example F65, N—((S)-1-((S)-2-(5-(4′-(2-((S)-1-((S)-2-(N,N-dimethylsulfamoylamino)-3-methylbutanoyl)pyrrolidin-2-yl)-1H-imidazol-5-yl)biphenyl-4-yl)-1H-imidazol-2-yl)pyrrolidin-1-yl)-3-methyl-1-oxobutan-2-yl)propane-2-sulfonamide] as the molecule, how does the pEC50 read?
A: The pEC50 was 6.00 to 7.00.

same assay, conditions: Hepatitis C virus, HCV 1b-377-neo replicon cells; HCV 1b genotype; read-out: EC50 range against HCV 1b (Table 2, Range)

Q: `C[C@H](NS(C)(=O)=O)C(=O)N1CCC[C@H]1c1nc(-c2ccc(-c3ccc(-c4cnc([C@@H]5CCCN5C(=O)[C@H](C)NS(C)(=O)=O)[nH]4)cc3)cc2)c[nH]1` [Example F69, N-((1S)-1-methyl-2-((2S)-2-(5-(4′-(2-((2S)-1-(N-(methylsulfonyl)-L-alanyl)-2-pyrrolidinyl)-1H-imidazol-4-yl)-4-biphenylyl)-1H-imidazol-2-yl)-1-pyrrolidinyl)-2-oxoethyl)methanesulfonamide] was tested. Which pEC50 did it give?
A: The pEC50 was 6.00 to 7.00.

Q: `COC(=O)N[C@H](C(=O)N1CCC[C@H]1c1ncc(-c2ccc(-c3ccc(-c4cnc([C@@H]5CCCN5C(=O)[C@@H](NC(=O)OC)C5CC5)[nH]4)cc3)cc2)[nH]1)C1CC1` [Example M23, dimethyl (4,4′-biphenyldiylbis(1H-imidazole-5,2-diyl(2S)-2,1-pyrrolidinediyl((1S)-1-cyclopropyl-2-oxo-2,1-ethanediyl)))biscarbamate] was tested. Which pEC50 did it give?
A: Its pEC50 is 7.00 to 9.00.

Q: `COC(=O)N[C@H](C(=O)N1CCC[C@H]1c1ncc(-c2ccc(-c3ccc(-c4cnc([C@@H]5CCCN5C(=O)[C@@H](N)C(C)(C)O)[nH]4)cc3)cc2)[nH]1)C(C)C` [Example M104, methyl ((1S)-1-(((2S)-2-(5-(4′-(2-((2S)-1-(3-hydroxy-L-valyl)-2-pyrrolidinyl)-1H-imidazol-5-yl)-4-biphenylyl)-1H-imidazol-2-yl)-1-pyrrolidinyl)carbonyl)-2-methylpropyl)carbamate] was tested. Which pEC50 did it give?
A: Its pEC50 is 6.00 to 7.00.

Q: With `O=C([C@H](O)c1ccccc1)N1C[C@H](O)C[C@H]1c1ncc(-c2ccc(-c3ccc(-c4cnc([C@@H]5C[C@@H](O)CN5C(=O)[C@H](O)c5ccccc5)[nH]4)cc3)cc2)[nH]1` [Example 24-12, (3R,5S,3′R,5′S)-5,5′-(4,4′-biphenyldiylbis(1H-imidazole-5,2-diyl))bis(1-((2R)-2-hydroxy-2-phenylacetyl)-3-pyrrolidinol)] as the molecule, how does the pEC50 read?
A: The pEC50 was 7.00 to 9.00.

Q: With `COC(=O)N[C@H](C(=O)N1CCC[C@H]1c1ncc(-c2ccc(-c3ccc(-c4cnc([C@@H]5CCCN5C(=O)[C@@H](NC(=O)OC)C(C)(C)C)[nH]4)cc3)cc2)[nH]1)C(C)(C)C` [Example M24, methyl ((1S)-1-(((2S)-2-(5-(4′-(2-((2S)-1-((2S)-2-((methoxycarbonyl)amino)-3,3-dimethylbutanoyl)-2-pyrrolidinyl)-1H-imidazol-5-yl)-4-biphenylyl)-1H-imidazol-2-yl)-1-pyrrolidinyl)carbonyl)-2,2-dimethylpropyl)carbamate] as the molecule, how does the pEC50 read?
A: The pEC50 was 7.00 to 9.00.

Q: `CC(C)[C@@H](NC(=O)OC(C)(C)C)C(=O)N1[C@@H]2C[C@@H]2C[C@H]1c1nc(-c2ccc(-c3ccc(-c4c[nH]c([C@@H]5C[C@H]6C[C@H]6N5C(=O)[C@H](NC(=O)OC(C)(C)C)C(C)C)n4)cc3)cc2)c[nH]1` [Example M142, tert-butyl ((1R)-1-(((1R,3S,5R)-3-(4-(4′-(2-((1R,3S,5R)-2-((2R)-2-((tert-butoxycarbonyl)amino)-3-methylbutanoyl)-2-azabicyclo[3.1.0]hex-3-yl)-1H-imidazol-4-yl)-4-biphenylyl)-1H-imidazol-2-yl)-2-azabicyclo[3.1.0]hex-2-yl)carbonyl)-2-methylpropyl)carbamate] was tested. Which pEC50 did it give?
A: The pEC50 was 7.00 to 9.00.

Q: How did the pEC50 turn out when `COC(=O)N[C@H](C(=O)N1CCC[C@H]1c1ncc(-c2ccc(-c3ccc(-c4cnc([C@@H]5CCCN5C(=O)CNC(C)C)[nH]4)cc3)cc2)[nH]1)C(C)C` [LS25, methyl ((1S)-1-(((2S)-2-(5-(4′-(2-((2S)-1-(N-isopropylglycyl)-2-pyrrolidinyl)-1H-imidazol-5-yl)-4-biphenylyl)-1H-imidazol-2-yl)-1-pyrrolidinyl)carbonyl)-2-methylpropyl)carbamate] was run?
A: The pEC50 was 9.00 to 12.00.

Q: With `COC(=O)N[C@@H](C(=O)N1CCC[C@H]1c1ncc(-c2ccc(-c3ccc(-c4cnc([C@@H]5CCCN5C(=O)[C@@H]5CCC[C@H]5NC(=O)OC)[nH]4)cc3)cc2)[nH]1)c1ccccc1` [cj-110, methyl ((1R)-2-((2S)-2-(5-(4′-(2-((2S)-1-(((1R,2R)-2-((methoxycarbonyl)amino)cyclopentyl)carbonyl)-2-pyrrolidinyl)-1H-imidazol-5-yl)-4-biphenylyl)-1H-imidazol-2-yl)-1-pyrrolidinyl)-2-oxo-1-phenylethyl)carbamate] as the molecule, how does the pEC50 read?
A: Its pEC50 is 9.00 to 12.00.

Q: How did the pEC50 turn out when `COC(=O)N[C@@H](Cc1cn(Cc2ccccc2)cn1)C(=O)N1CCC[C@H]1c1ncc(-c2ccc(-c3ccc(-c4cnc([C@@H]5CCCN5C(=O)[C@@H](NC(=O)OC)[C@@H](C)OC)[nH]4)cc3)cc2)[nH]1` [cj-75, methyl ((1S)-1-((1-benzyl-1H-imidazol-4-yl)methyl)-2-((2S)-2-(5-(4′-(2-((2S)-1-((2S,3R)-3-methoxy-2-((methoxycarbonyl)amino)butanoyl)-2-pyrrolidinyl)-1H-imidazol-5-yl)-4-biphenylyl)-1H-irnidazol-2-yl)-1-pyrrolidinyl)-2-oxoethyl)carbamate] was run?
A: The pEC50 was 9.00 to 12.00.

Q: How did the pEC50 turn out when `COC(=O)N[C@@H](C(=O)N1CCC[C@H]1c1ncc(-c2ccc(-c3ccc(-c4cnc([C@@H]5CCCN5C(=O)N5CCOCC5)[nH]4)cn3)cc2)[nH]1)c1ccccc1` [Example 144, methyl ((1R)-2-((2S)-2-(5-(4-(5-(2-((2S)-1-(4-morpholinylcarbonyl)-2-pyrrolidinyl)-1H-imidazol-5-yl)-2-pyridinyl)phenyl)-1H-imidazol-2-yl)-1-pyrrolidinyl)-2-oxo-1-phenylethyl)carbamate] was run?
A: The pEC50 was 9.00 to 12.00.

Q: How did the pEC50 turn out when `CCN(CC)[C@@H](C(=O)N1CCC[C@H]1c1ncc(-c2ccc(-c3ccc(-c4cnc([C@@H]5CCCN5C(=O)[C@@H](Nc5cccnc5)C(C)C)[nH]4)cc3)cc2)[nH]1)c1ccccc1` [cj-20c, N-((1S)-1-(((2S)-2-(5-(4′-(2-((2S)-1-((2R)-2-(diethylamino)-2-phenylacetyl)-2-pyrrolidinyl)-1H-imidazol-5-yl)-4-biphenylyl)-1H-imidazol-2-yl)-1-pyrrolidinyl)carbonyl)-2-methylpropyl)-3-pyridinamine] was run?
A: Its pEC50 is 9.00 to 12.00.

Q: With `CCN(CC)CCC(NC(=O)OC)C(=O)N1CCC[C@H]1c1ncc(-c2ccc(-c3ccc(-c4cnc([C@@H]5CCCN5C(=O)[C@@H](NC(=O)OC)C(C)C)[nH]4)cc3)cc2)[nH]1` (stereo partly drawn) [Example M67a, methyl ((1S)-1-(((2S)-2-(5-(4′-(2-((2S)-1-(4-(diethylamino)-2-((methoxycarbonyl)amino)butanoyl)-2-pyrrolidinyl)-1H-imidazol-5-yl)-4-biphenylyl)-1H-imidazol-2-yl)-1-pyrrolidinyl)carbonyl)-2-methylpropyl)carbamate] as the molecule, how does the pEC50 read?
A: The pEC50 was 6.00 to 7.00.

Q: How did the pEC50 turn out when `O=C(Cc1cccnc1)N[C@@H](C(=O)N1CCC[C@H]1c1ncc(-c2ccc(-c3ccc(-c4cnc([C@@H]5CCCN5C(=O)[C@H](NC(=O)Cc5cccnc5)c5ccccc5)[nH]4)cc3)cc2)[nH]1)c1ccccc1` [Example 25-4, N,N′-(4,4′-biphenyldiylbis(1H-imidazole-5,2-diyl(2S)-2,1-pyrrolidinediyl((1R)-2-oxo-1-phenyl-2,1-ethanediyl)))bis(2-(3-pyridinyl)acetamide)] was run?
A: Its pEC50 is 9.00 to 12.00.

Q: How did the pEC50 turn out when `COC(=O)N[C@@H](C)C(=O)N1CCC[C@H]1c1nc(-c2cnc(-c3ccc(-c4cnc([C@@H]5CCCN5C(=O)[C@H](C)NC(=O)OC)[nH]4)c(F)c3)nc2)c[nH]1` [Example D67, methyl ((1S)-2-((2S)-2-(5-(2-fluoro-4-(5-(2-((2S)-1-(N-(methoxycarbonyl)-L-alanyl)-2-pyrrolidinyl)-1H-imidazol-5-yl)-2-pyrimidinyl)phenyl)-1H-imidazol-2-yl)-1-pyrrolidinyl)-1-methyl-2-oxoethyl)carbamate] was run?
A: The pEC50 was 9.00 to 12.00.

Q: With `COC(=O)N[C@@H](C(=O)N1CCC[C@H]1c1ncc(-c2ccc(-c3ccc(-c4cnc([C@@H]5CCCN5C(=O)Cc5cccc(C)c5)[nH]4)cc3)cc2)[nH]1)c1ccccc1` [Example 84-71, methyl ((1R)-2-((2S)-2-(5-(4′-(2-((2S)-1-((3-methylphenyl)acetyl)-2-pyrrolidinyl)-1H-imidazol-5-yl)-4-biphenylyl)-1H-imidazol-2-yl)-1-pyrrolidinyl)-2-oxo-1-phenylethyl)carbamate] as the molecule, how does the pEC50 read?
A: The pEC50 was 7.00 to 9.00.

Q: How did the pEC50 turn out when `COC(=O)N[C@@H](C)C(=O)N1CCC[C@H]1c1ncc(-c2ccc(-c3ccc(-c4cnc([C@@H]5CCCN5C(=O)[C@H](Cc5ccc(O)cc5)NC(=O)OC)[nH]4)cc3)cc2)[nH]1` [cj-113, methyl ((1S)-1-(4-hydroxybenzyl)-2-((2S)-2-(5-(4′-(2-((2S)-1-(N-(methoxycarbonyl)-L-alanyl)-2-pyrrolidinyl)-1H-imidazol-5-yl)-4-biphenylyl)-1H-imidazol-2-yl)-1-pyrrolidinyl)-2-oxoethyl)carbamate] was run?
A: The pEC50 was 9.00 to 12.00.

Q: How did the pEC50 turn out when `COC(=O)N[C@@H](C(=O)N1C[C@@H](O)C[C@H]1c1ncc(-c2ccc(-c3ccc(-c4cnc([C@@H]5C[C@H](O)CN5C(=O)[C@H](NC(=O)OC)c5ccccc5)[nH]4)cc3)cc2)[nH]1)c1ccccc1` [Example 24-17, dimethyl (4,4′-biphenyldiylbis(1H-imidazole-5,2-diyl((2S,4S)-4-hydroxy-2,1-pyrrolidinediyl)((1R)-2-oxo-1-phenyl-2,1-ethanediyl)))biscarbamate] was run?
A: The pEC50 was 9.00 to 12.00.
